For orientation: IC50 means the point on the concentration scale where inhibition reaches its midpoint.

Here are results for five molecules from patent US6861440B2, “DPP IV inhibitors” (Hoffmann-La Roche Inc., priority 2001, dated 2005).

For this test, the target named is T1, human DPP-IV (Homo sapiens, UniProt P27487).
T1 construct: made in house; host or cells: Pichia pastoris
Nature of the test: DPP-IV activity assay (fluorogenic or colorimetric substrate), IC50 determination. The following applies: natural human DPP-IV from human plasma pool or recombinant human DPP-IV; 37° C., pH 7.8. In kind it is biochemical. How it is done:
Activity of DPP-IV inhibitors are tested with natural human DPP-IV derived from a human plasma pool or with recombinat human DPP-IV. Human citrate plasma from different donors is pooled, filterted through a 0.2 micron membrane under sterile conditions and aliquots of 1 ml are shock frozen and stored at −120° C. until used. In the calorimetric DPP-IV assay 5 to 10 μl human plasma and in the fluorometric assay 1.0 μl of human plasma in a total assay volume of 100 μl is used as an enzyme source. […] Human DPP-IV is expressed and purified from the cultur medium using conventional column chromatography including size exclusion and anion and cation chromatography. […] In the calorimetric DPP-IV assay 20 ng rec.-h DPP-IV and in the fluorometric assay 2 ng rec-h DPP-IV in a total assay volume of 100 μl is used as an enzyme source.
A 20 mM stock solution in 10% DMF/H2O is stored at −20° C. until use.
A 10 mM stock solution in 10% MeOH/H2O is stored at −20° C. until use.
Fluorescence is detected in a Perkin Elmer Luminescence Spectrometer LS 50B at an excitation wavelength of 400 nm and an emission wavelength of 505 nm continuously every 15 seconds for 10 to 30 minutes. Initial rate constants are calculated by best fit linear regression.
Initial rate constants are calculated by best fit linear regression.
DPP-IV activity assays are performed in 96 well plates at 37° C. in a total assay volume of 100 μl. The assay buffer consists of 50 mM Tris/HCl pH 7.8 containing 0.1 mg/ml BSA and 100 mM NaCl. Test compounds are solved in 100% DMSO, diluted to the desired concentration in 10% DMSO/H2O. The final DMSO concentration in the assay is 1% (v/v). […] Compounds are with (10 minutes at 37° C.) and without preincubation with the enzyme. Enzyme reactions are started with substrate application follwed by immediate mixing.
Kinetic parameters of the enzyme reaction are calculated at at least 5 different substrate concentrations and at least 5 different test compound concentrations.

T1 sequence (P27487 31-766): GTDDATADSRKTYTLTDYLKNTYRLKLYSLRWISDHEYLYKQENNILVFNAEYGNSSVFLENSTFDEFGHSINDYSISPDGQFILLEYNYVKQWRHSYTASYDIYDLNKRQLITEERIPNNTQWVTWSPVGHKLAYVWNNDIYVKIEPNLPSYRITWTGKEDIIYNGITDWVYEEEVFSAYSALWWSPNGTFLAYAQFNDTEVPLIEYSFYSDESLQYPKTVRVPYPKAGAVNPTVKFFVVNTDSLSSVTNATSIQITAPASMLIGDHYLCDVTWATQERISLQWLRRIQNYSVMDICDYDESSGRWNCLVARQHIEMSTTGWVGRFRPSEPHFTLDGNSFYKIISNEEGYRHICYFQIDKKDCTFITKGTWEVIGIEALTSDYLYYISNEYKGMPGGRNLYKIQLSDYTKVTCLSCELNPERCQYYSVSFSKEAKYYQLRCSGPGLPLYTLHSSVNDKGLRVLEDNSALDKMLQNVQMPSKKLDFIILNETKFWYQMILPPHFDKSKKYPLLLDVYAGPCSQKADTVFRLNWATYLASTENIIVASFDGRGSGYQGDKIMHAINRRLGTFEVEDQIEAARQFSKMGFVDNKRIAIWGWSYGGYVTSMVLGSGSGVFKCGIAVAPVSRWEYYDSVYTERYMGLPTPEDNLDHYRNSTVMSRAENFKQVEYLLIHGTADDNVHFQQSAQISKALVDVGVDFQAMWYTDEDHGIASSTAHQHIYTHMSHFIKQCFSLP

As for `COc1cc2c(C(=O)C(F)(F)F)cn(C[C@H](C)NCC(=O)N3CCC[C@H]3C#N)c2cc1OC` [Example 23, (2S)-1-{[(1S)-2-(5,6-Dimethoxy-3-trifluoroacetyl-indol-1-yl)-1-methyl-ethylamino]-acetyl}-pyrrolidine-2-carbonitrile], the IC50 amounted to 128 nM.
The result for `CC(C)(CNc1cccc(-c2ccccc2)n1)NCC(=O)N1CCC[C@H]1C#N` [Example 129, (2S)-1-{[1,1-Dimethyl-2-(6-phenyl-pyridin-2-ylamino)-ethylamino]-acetyl}-pyrrolidine-2-carbonitrile] reads 1 nM; that for `Cc1c(C)n(C[C@H](C)NCC(=O)N2CCC[C@H]2C#N)c2ccccc12` [Example 7, (2S)-1-{[(1S)-2-(2,3-Dimethyl-indol-1-yl)-1-methyl-ethylamino]-acetyl}-pyrrolidine-2-carbonitrile], 88 nM; that for `Cc1cccc(-c2nc(CC(C)(C)NCC(=O)N3CCC[C@H]3C#N)c(C)[nH]2)c1` [Example 188, (2S)-1-{[1,1-Dimethyl-2-(5-methyl-2-m-tolyl-1H-imidazol-4-yl)-ethylamino]-acetyl}-pyrrolidine-2-carbonitrile], 1 nM.
In the case of `CC(C)(CNc1ccc(-c2cccc(C(F)(F)F)c2)cn1)NCC(=O)N1CCC[C@H]1C#N` [Example 119, (2S)-1-({1,1-Dimethyl-2-[5-(3-trifluoromethyl-phenyl)-pyridin-2-ylamino]-ethylamino}-acetyl)-pyrrolidine-2-carbonitrile] it was 7 nM.
